Results as given in patent US20140094424A1, “MICROBICIDAL COMPOSITIONS AND METHODS OF PRODUCTION USE THEREOF” (priority 2011, published 2014).

Legend:
[1] = system: Penicillium notatum-KMO (R); assay: MBC (minimum bactericidal concentration) test in Wash NEXT reagent; type: cell-based; settings: for total kill at % preservative (MBC): at 14 days
Method: (§1) The stock organisms were thawed and subbed prior to beginning the MBC test. Molds were subbed to SDA plates one week before, and the bacteria were subbed to TAT agar plates 24 hours prior to the start of the test. All plates were incubated at 32 degrees C.
(§2) For the molds, each organism was inoculated into 40 ml sterile saline in a centrifuge tube to create a density of MacFarland #5. Two serial dilutions of 1:100 were then made, resulting in 10^−2 and 10^−4 concentrations. Each dilution was vortexed before it was sampled, and sterile Eppendorf pipette tips were used to make each transfer. The 10^−4 dilution was spiral plated to yield the initial inoculum concentration.
(§3) MBC trays were set up with the prepared test reagent. Using a Matrix pipettor, 100 μl aliquots of reagent were distributed into the wells, diluting the amount of preservative from 100% to 10% increments, using unpreserved reagent as the diluent. In one row, 100% non-preserved reagent acted as a positive control and served as a benchmark for a full mat of growth. In well #12H, 100 μl unpreserved reagent was pipetted, and this well was not inoculated with organisms, as it served as the negative control. Once all of the trays were prepared, the prepared bacteria/mold suspensions were poured into the MBC inoculating trays. These were placed onto the reagent trays, and 0.01 ml inoculum was introduced into the 100 μl of reagent in each well.
(§4) This was done by dipping a sterile cotton swab into each well, and absorbing all of the liquid in the well. The swab was rolled onto a TAT agar plate ensuring that the entire swab touches the agar. Plates ware incubated at 32 degrees C. for 48 hours to 7 days, depending on the organism. Observations for growth were performed by a scoring matrix using + for a full mat, +/− for some growth, a numerical value for an actual colony count, and—for no growth.
(§5) Below are tables that contain the data obtained in Example 1. The MBC test is scored by (+) indicating a full grown mat of organisms, equivalent to the organisms in the unpreserved reagent. (+/−) indicates there is some kill evident disturbing that mat or bringing the quantities down to an almost countable level. An actual number is the actual number of colonies growing at that concentration of preservative. (−) indicates no growth found. The MBC trays were stored at room temperature for the entire test.
(§6) The materials and methods and analysis of the MBC test were the same as in Example 1.

[2] = system: Aspergillus glaucus- DMO (Q); assay: as above; type: cell-based
Method: as §1, §2, §3, §4, §5, §6

## [N-]=[N+]=[N-] [Sodium Azide, sodium azide]
[1]; 10%, 8 hour
  growth: +
[1]; 10%, 24 hour
  growth: +
[1]; 10%, 48 hour
  growth: +/−
[1]; 10%, 72 hour
  growth (number of organisms counted): 24
[1]; 10%, 7 day
  growth (number of organisms counted): 20
[1]; 10%, 14 day
  growth (number of organisms counted): 14
[1]; 20%, 8 hour
  growth: +
[1]; 20%, 24 hour
  growth: +
[1]; 20%, 48 hour
  growth: +/−
[1]; 20%, 72 hour
  growth (number of organisms counted): 22
[1]; 20%, 7 day
  growth (number of organisms counted): 19
[1]; 20%, 14 day
  growth (number of organisms counted): 11
[1]; 30%, 8 hour
  growth: +
[1]; 30%, 24 hour
  growth: +
[1]; 30%, 48 hour
  growth: +/−
[1]; 30%, 72 hour
  growth (number of organisms counted): 22
[1]; 30%, 7 day
  growth (number of organisms counted): 19
[1]; 30%, 14 day
  growth (number of organisms counted): 8
[1]; 40%, 8 hour
  growth: +
[1]; 40%, 24 hour
  growth: +
[1]; 40%, 48 hour
  growth: +/−
[1]; 40%, 72 hour
  growth (number of organisms counted): 18
[1]; 40%, 7 day
  growth (number of organisms counted): 15
[1]; 40%, 14 day
  growth (number of organisms counted): 6
[1]; 50%, 8 hour
  growth: +
[1]; 50%, 24 hour
  growth: +
[1]; 50%, 48 hour
  growth: +/−
[1]; 50%, 72 hour
  growth (number of organisms counted): 15
[1]; 50%, 7 day
  growth (number of organisms counted): 12
[1]; 50%, 14 day
  growth: −
[1]; 60%, 8 hour
  growth: +
[1]; 60%, 24 hour
  growth: +
[1]; 60%, 48 hour
  growth: +/−
[1]; 60%, 72 hour
  growth (number of organisms counted): 13
[1]; 60%, 7 day
  growth (number of organisms counted): 10
[1]; 60%, 14 day
  growth: −
[1]; 70%, 8 hour
  growth: +
[1]; 70%, 24 hour
  growth: +
[1]; 70%, 48 hour
  growth: +/−
[1]; 70%, 72 hour
  growth (number of organisms counted): 11
[1]; 70%, 7 day
  growth (number of organisms counted): 9
[1]; 70%, 14 day
  growth: −
[1]; 80%, 8 hour
  growth: +
[1]; 80%, 24 hour
  growth: +
[1]; 80%, 48 hour
  growth: +/−
[1]; 80%, 72 hour
  growth (number of organisms counted): 9
[1]; 80%, 7 day
  growth (number of organisms counted): 6
[1]; 80%, 14 day
  growth: −
[1]; 90%, 8 hour
  growth: +
[1]; 90%, 24 hour
  growth: +
[1]; 90%, 48 hour
  growth: +/−
[1]; 90%, 72 hour
  growth (number of organisms counted): 7
[1]; 90%, 7 day
  growth (number of organisms counted): 4
[1]; 90%, 14 day
  growth: −
[1]; 100%, 8 hour
  growth: +
[1]; 100%, 24 hour
  growth: +
[1]; 100%, 48 hour
  growth: +/−
[1]; 100%, 72 hour
  growth (number of organisms counted): 6
[1]; 100%, 7 day
  growth (number of organisms counted): 3
[1]; 100%, 14 day
  growth: −
[1]
  total kill at % preservative (MBC): had total kill at 50% preservative at 14
[1]; listed as Na Azide
  total kill at % preservative (MBC): Total kill @ 50%
[2]; 10% preservative, 8 hour
  MBC test growth score: +
[2]; 10% preservative, 24 hour
  MBC test growth score: +
[2]; 10% preservative, 48 hour
  MBC test growth score: +
[2]; 10% preservative, 72 hour
  MBC test growth score: +
[2]; 10% preservative, 7 day
  MBC test growth score: +
[2]; 10% preservative, 14 day
  MBC test growth score: +/−
[2]; 20% preservative, 8 hour
  MBC test growth score: +
[2]; 20% preservative, 24 hour
  MBC test growth score: +
[2]; 20% preservative, 48 hour
  MBC test growth score: +
[2]; 20% preservative, 72 hour
  MBC test growth score: +
[2]; 20% preservative, 7 day
  MBC test growth score: +
[2]; 20% preservative, 14 day
  MBC test growth score: +/−
[2]; 30% preservative, 8 hour
  MBC test growth score: +
[2]; 30% preservative, 24 hour
  MBC test growth score: +
[2]; 30% preservative, 48 hour
  MBC test growth score: +
[2]; 30% preservative, 72 hour
  MBC test growth score: +
[2]; 30% preservative, 7 day
  MBC test growth score: +
[2]; 30% preservative, 14 day
  MBC test growth score: +/−
[2]; 40% preservative, 8 hour
  MBC test growth score: +
[2]; 40% preservative, 24 hour
  MBC test growth score: +
[2]; 40% preservative, 48 hour
  MBC test growth score: +
[2]; 40% preservative, 72 hour
  MBC test growth score: +
[2]; 40% preservative, 7 day
  MBC test growth score: +
[2]; 40% preservative, 14 day
  MBC test growth score: +/−
[2]; 50% preservative, 8 hour
  MBC test growth score: +
[2]; 50% preservative, 24 hour
  MBC test growth score: +
[2]; 50% preservative, 48 hour
  MBC test growth score: +
[2]; 50% preservative, 72 hour
  MBC test growth score: +
[2]; 50% preservative, 7 day
  MBC test growth score: +
[2]; 50% preservative, 14 day
  MBC test growth score: +/−
[2]; 60% preservative, 8 hour
  MBC test growth score: +
[2]; 60% preservative, 24 hour
  MBC test growth score: +
[2]; 60% preservative, 48 hour
  MBC test growth score: +
[2]; 60% preservative, 72 hour
  MBC test growth score: +
[2]; 60% preservative, 7 day
  MBC test growth score: +
[2]; 60% preservative, 14 day
  MBC test growth score: +/−
[2]; 70% preservative, 8 hour
  MBC test growth score: +
[2]; 70% preservative, 24 hour
  MBC test growth score: +
[2]; 70% preservative, 48 hour
  MBC test growth score: +
[2]; 70% preservative, 72 hour
  MBC test growth score: +
[2]; 70% preservative, 7 day
  MBC test growth score: +
[2]; 70% preservative, 14 day
  MBC test growth score: +/−
[2]; 80% preservative, 8 hour
  MBC test growth score: +
[2]; 80% preservative, 24 hour
  MBC test growth score: +
[2]; 80% preservative, 48 hour
  MBC test growth score: +
[2]; 80% preservative, 72 hour
  MBC test growth score: +
[2]; 80% preservative, 7 day
  MBC test growth score: +
[2]; 80% preservative, 14 day
  MBC test growth score: +/−
[2]; 90% preservative, 8 hour
  MBC test growth score: +
[2]; 90% preservative, 24 hour
  MBC test growth score: +
[2]; 90% preservative, 48 hour
  MBC test growth score: +
[2]; 90% preservative, 72 hour
  MBC test growth score: +
[2]; 90% preservative, 7 day
  MBC test growth score: +
[2]; 90% preservative, 14 day
  MBC test growth score: +/−
[2]; 100% preservative, 8 hour
  MBC test growth score: +
[2]; 100% preservative, 24 hour
  MBC test growth score: +
[2]; 100% preservative, 48 hour
  MBC test growth score: +
[2]; 100% preservative, 72 hour
  MBC test growth score: +
[2]; 100% preservative, 7 day
  MBC test growth score: +
[2]; 100% preservative, 14 day
  MBC test growth score: +/−
[2]; at 14 days, listed as Na Azide
  total kill at % preservative (MBC): No kill @ 100%
